Experimental data as given in patent US4591589A, “2-aryl pyrazolo[4,3-c]cinnolin-3-ones” (Roussel Uclaf, priority 1985, dated 1986).
Where a name gives a salt, the structure may show the parent alone.

Assays:
rats [1] = assay: Staircase test; assay type: in vivo; conditions: 20 mg/kg; 1 hour after administration; counted for 3 minutes
Method: The apparatus and the method used are described by THIEBOT et al [Psychol-pharmacologia (Berlin), 1973, Vol. 31, p. 77]. The experiment was carried out on groups of 15 inexperienced rats and the animals were put individually in the enclosure 1 hour after administration of the compound studied. The number of straightenings up and the number of steps claimed were counted for 3 minutes.

rats [2] = assay: Plate test in rats (electric shocks); assay type: in vivo; conditions: oral, 20 mg/kg, half an hour after administration, vs control
Method: (§1) The apparatus (Apelab) and the method used are described by BOISSER et al [European J. Pharmacol., 1968, Vol. 4, p. 145]. The plates were linked to a stimulator (U. Sachs, Roucaire) which enabled electric shocks of 120 volts to be delivered during 0.5 seconds. The tests were carried out on groups of 10 mice or rats half an hour after oral administration of the compound studied and each animal has put individually on the apparatus. After 15 seconds of free exploration, it was submitted to an electric shock each time it passed from one plate to another, a minimum of 3 seconds being observed between two shocks. The number of shocks delivered was counted over 1 minute and the results obtained were compared to those observed in the control animals in a test by Dunnett.

mice [3] = assay: Plate test in mice (electric shocks); assay type: in vivo; conditions: for anxiety reducing activity (plate test): conclusion in words, mice (Example 1 also rats)
Method: as §1

mice [4] = assay: Acute toxicity (lethal dose LD0); assay type: in vivo; conditions: oral
Method: The lethal dose LD0 of the compound of Example 1 was evaluated after administration orally in mice. The maximum dose not causing any mortality in 8 days was called the LD0.

benzodiazepine receptors = assay: Affinity for benzodiazepine receptors (displacement of 3H diazepam, rat brain cortex homogenate); assay type: binding; conditions: rat brain cortices; 3H diazepam 10^-9 M, 30 minutes at 0° C., pH 7.4; read-out: Cl 50 (concentration inhibiting by 50% the specific bonding of 3H diazepam)
Method: The cortices removed from the brains of male rats weighing an average of 150 g were homogenized to one twentieth part (weight/volume) in 0.32M sucrose. After centrifuging the homogenate at 1000 g for 10 minutes at 0° C., the supernatant layer was centrifuged at 30,000 g for 20 minutes at +4° C. The residue was suspended in 20 volumes of Tris HCl 50 mM buffer with a pH of 7.4 and centrifuged at 30,000 g for 20 minutes at +4° C. The new residue obtained was suspended in 50 ml of Krebs Tris HCl buffer, pH 7.4.
2 ml of this suspension in the presence of ^3 H diazepam at a concentration of 10^-9 M was incubated for 30 minutes at 0° C., alone, and with increasing concentrations of the product under test, or to determine the non-specific fixation, with non-radio-active diazepam at a concentration of 10^-6 M. The incubated suspensions were filtered on Whatman GF/C and the filters were washed twice with 5 ml of Krebs Tris HCl buffer, pH 7.4, at 0° C. The radioactivity of the filters was measured by liquid scintillation. The activity of the product was expressed by CI 50: concentration inhibiting by 50% the specific bonding of ^3 H diazepam, determined graphically.

O=c1c2n[nH]c3ccc(Cl)cc3c-2nn1-c1ccccc1 [Example 1, 8-chloro-2,5-dihydro-2-phenyl-3H-pyrazolo[4,3-c]cinnolin-3-one]
decrease in number of straightenings up (rats [1]): 46%
increase in number of shocks delivered (rats [2]): 41%
increase in number of shocks delivered (mice [3]; mice, oral, 20 mg/kg, half an hour after administration, vs control): 63%
LD0 (maximum dose not causing any mortality in 8 days) (mice [4]): > 400

O=c1c2n[nH]c3ccccc3c-2nn1-c1ccc(Cl)cc1 [Example 2, 2-(4-chlorophenyl)-2,5-dihydro-3H-pyrazolo[4,3-c]cinnolin-3-one]
IC50 (benzodiazepine receptors): 3.7 nM

O=c1c2n[nH]c3ccccc3c-2nn1-c1ccccc1 [Example 3, 2,5-dihydro-2-phenyl-3H-pyrazolo[4,3-c]cinnolin-3-one]
IC50 (benzodiazepine receptors): 0.9 nM
anxiety reducing activity (plate test) (mice [3]): good anxiety reducing activity
increase in number of shocks (mice [3]; mice, oral, 50 mg/kg, half an hour after administration, vs control): 50%
LD0 (maximum dose not causing any mortality in 8 days) (mice [4]): > 200

COc1ccc(-n2nc3c4ccccc4[nH]nc-3c2=O)cc1 [Example 4, 2,5-dihydro-2-(4-methoxyphenyl)-3H-pyrazolo[4,3-c]cinnolin-3-one]
IC50 (benzodiazepine receptors): 2.5 nM
LD0 (maximum dose not causing any mortality in 8 days) (mice [4]): > 400

O=c1c2n[nH]c3ccccc3c-2nn1-c1ccc(OCc2ccccc2)cc1 [Example 5, 2,5-dihydro-2-(4-benzyloxyphenyl)-3H-pyrazolo[4,3-c]cinnolin-3-one]
IC50 (benzodiazepine receptors): 18 nM
LD0 (maximum dose not causing any mortality in 8 days) (mice [4]): > 400

O=c1c2n[nH]c3ccccc3c-2nn1-c1cccc(C(F)(F)F)c1 [Example 6, 2,5-dihydro-2-(3-trifluoromethylphenyl)-3H-pyrazolo[4,3-c]cinnolin-3-one]
LD0 (maximum dose not causing any mortality in 8 days) (mice [4]): > 400

Cc1ccccc1-n1nc2c3ccccc3[nH]nc-2c1=O [Example 7, 2,5-dihydro-2-(2-methylphenyl)-3H-pyrazolo[4,3-c]cinnolin-3-one]
LD0 (maximum dose not causing any mortality in 8 days) (mice [4]): 200

Cl.O=c1c2n[nH]c3ccccc3c-2nn1-c1ccccn1 [Example 8, 2,5-dihydro-(2-pyridin-2-yl)-3H-pyrazolo[4,3-c]cinnolin-3-one hydrochloride]
IC50 (benzodiazepine receptors): 3.1 nM
anxiety reducing activity (plate test) (mice [3]): good anxiety reducing activity
increase in number of shocks (mice [3]; mice, oral, 100 mg/kg, half an hour after administration, vs control): 50%
LD0 (maximum dose not causing any mortality in 8 days) (mice [4]): > 400

O=c1c2n[nH]c3ccccc3c-2nn1-c1nccs1 [Example 9, 2,5-dihydro-(2-thiazol-2-yl)-3H-pyrazolo[4,3-c]cinnolin-3-one hydrochloride]
IC50 (benzodiazepine receptors): 3.1 nM

O=c1c2n[nH]c3ccccc3c-2nn1C1=NCCS1 [Example 10, 2,5-dihydro-(2-dihydrothiazol-2-yl)-3H-pyrazolo[4,3-c]cinnolin-3-one hydrochloride]
LD0 (maximum dose not causing any mortality in 8 days) (mice [4]): > 400
